{"source": "paper PMC7794297", "key": {"[1]": {"assay": "Spermine-templated DCL of building blocks 1-4", "settings": "spermine DCL of 1-4", "method_in_brief": "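Dynamic combinatorial libraries of building blocks 1–4 were equilibrated without stirring at pH 7.8 and 6 °C, with and without spermine and with or without Secox, for 24–96 h until stable. Composition was analysed by HPLC-MS, and template influence was expressed as normalized change in relative peak area.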"}, "[2]": {"assay": "Spermidine-templated DCL of building blocks 1-4;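 also: Spermidine-templated dynamic combinatorial library, normalized change of RPA compared between Secox-free and Secox-containing libraries, DCC runs done in triplicate, values given as mean ± SD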"}, "[3]": {"biological_target": "T1, glucose oxidase (GOx) (Aspergillus niger, UniProt P13006)", "T1 sequence (P13006 17-605)": "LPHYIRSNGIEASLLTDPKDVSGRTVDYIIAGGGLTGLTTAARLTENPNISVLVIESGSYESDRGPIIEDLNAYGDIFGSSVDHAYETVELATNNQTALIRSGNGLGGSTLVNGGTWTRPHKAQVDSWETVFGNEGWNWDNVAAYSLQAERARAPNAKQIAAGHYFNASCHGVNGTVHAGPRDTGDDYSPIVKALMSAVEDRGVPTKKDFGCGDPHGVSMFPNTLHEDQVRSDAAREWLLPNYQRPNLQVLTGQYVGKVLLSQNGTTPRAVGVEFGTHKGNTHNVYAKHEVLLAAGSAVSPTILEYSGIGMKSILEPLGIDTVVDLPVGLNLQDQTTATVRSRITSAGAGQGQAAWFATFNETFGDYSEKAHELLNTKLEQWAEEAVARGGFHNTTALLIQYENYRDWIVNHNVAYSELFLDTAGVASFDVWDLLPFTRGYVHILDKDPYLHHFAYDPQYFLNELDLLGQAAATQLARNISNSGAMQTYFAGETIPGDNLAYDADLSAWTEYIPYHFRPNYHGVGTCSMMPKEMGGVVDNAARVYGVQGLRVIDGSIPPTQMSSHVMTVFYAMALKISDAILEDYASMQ", "assay": "Glucose oxidase-directed DCL of building blocks 1-4", "parameters": "purchased Sigma Aldrich; unit not given here", "settings": "blank vs GOx template DCL; GOx 57 μM, Secox 5% mol, 24 h", "procedure": "The equilibration of the DCL was completed after 24 h (Fig. 9) and the oligomers were identified by HPLC-MS (Supplementary Figs. 4–20). The precise composition of the DCL (with and without GOx), was assessed by measuring the relative peak area (RPA). The normalized change of RPA was used to quantify the protein influence in the final DCL showing the amplification of the dimer of compound 4, that is (4)2 (Fig. 9b). Control experiments were set up to verify that the amplification of the dimer was not due to unspecific binding. Firstly the GOx was replaced by the bovine serum albumin (BSA). A stability study of BSA under the DCL conditions was performed using a fluorescence technique confirming the BSA stability in the DCL experiment (Supplementary Fig. 48)[50].\nThe DCL was stabilized for 24 h at 6 °C. Then, GOx was removed by ultracentrifugation through an Amicon ultra-filter (100 KDa). HPLC analysis was performed."}, "[4]": {"assay": "NADPH-templated DCL of building blocks 1-4;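 also: values are means ± SD of DCC experiments run in triplicate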"}, "[5]": {"biological_target": "T1, glucose oxidase (GOx)", "assay": "GOx activity assay, glucose oxidase-horseradish peroxidase coupled system with o-dianisidine;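 as to GOx activity: GOx activity followed by o-dianisidine absorbance at 500 nm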", "type": "biochemical", "parameters": "purchased Sigma Aldrich", "settings": "for 1/Vo: Lineweaver-Burk"}, "[6]": {"biological_target": "T1, glucose oxidase (GOx)", "assay": "Tryptophan fluorescence emission binding experiments with GOx", "parameters": "purchased Sigma Aldrich", "settings": "for Emmsion average / Normalized Fluorescence: Supplementary Figure 52 b"}, "[7]": {"biological_target": "bovine serum albumin (BSA) (Bos taurus, UniProt P02769)", "sequence (P02769 25-607)": "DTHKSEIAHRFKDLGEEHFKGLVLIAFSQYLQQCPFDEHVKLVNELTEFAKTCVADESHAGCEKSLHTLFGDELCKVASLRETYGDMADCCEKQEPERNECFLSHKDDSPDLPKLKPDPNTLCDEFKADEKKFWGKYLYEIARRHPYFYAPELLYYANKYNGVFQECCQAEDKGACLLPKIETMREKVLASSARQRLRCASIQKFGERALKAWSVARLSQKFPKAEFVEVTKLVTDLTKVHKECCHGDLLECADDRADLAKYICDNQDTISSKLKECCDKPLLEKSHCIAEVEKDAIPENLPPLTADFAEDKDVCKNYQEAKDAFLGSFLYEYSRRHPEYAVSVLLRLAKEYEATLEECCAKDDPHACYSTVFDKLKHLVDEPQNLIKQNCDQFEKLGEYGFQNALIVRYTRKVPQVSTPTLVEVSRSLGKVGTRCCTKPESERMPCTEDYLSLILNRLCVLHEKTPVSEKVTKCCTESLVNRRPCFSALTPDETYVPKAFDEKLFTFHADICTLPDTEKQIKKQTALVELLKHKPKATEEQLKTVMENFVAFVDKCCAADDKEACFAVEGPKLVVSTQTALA", "assay": "BSA-directed DCL of building blocks 1-4", "parameters": "purchased Roche; key to NC of RPA: normalized change of relative peak area (RPA) vs blank DCL"}}}
{"smiles": "c1ccc(SSc2ccccc2)cc1", "note": "[(4)2]", "values": [{"measurement": "Normalized Change of RPA (NC)", "setting": "[1]; 0% Secox", "result": "0,59"}, {"measurement": "Normalized Change of RPA (NC)", "setting": "[1]; 5% Secox", "result": "0,53"}, {"measurement": "Normalized Change of RPA (NC)", "setting": "[2]; 0% Secox", "result": "-0,49"}, {"measurement": "Normalized Change of RPA (NC)", "setting": "[2]; 5% Secox", "result": "-0,50"}, {"measurement": "NC of RPA", "setting": "[3]", "result": "39,73"}, {"measurement": "Normalized Change of RPA (NC)", "setting": "[4]; 0% Secox", "result": "-1,00"}, {"measurement": "Normalized Change of RPA (NC)", "setting": "[4]; 5% Secox", "result": "-1,00"}, {"measurement": "GOx Activity", "setting": "[5]; IC50 data, inhibitor 1.4 nM, glucose 10 mM", "result": 0.07285, "unit": "min⁻¹"}, {"measurement": "GOx Activity", "setting": "[5]; IC50 data, inhibitor 3.5 nM, glucose 10 mM", "result": 0.0762, "unit": "min⁻¹"}, {"measurement": "GOx Activity", "setting": "[5]; IC50 data, inhibitor 7.0 nM, glucose 10 mM", "result": 0.0665, "unit": "min⁻¹"}, {"measurement": "GOx Activity", "setting": "[5]; IC50 data, inhibitor 14.0 nM, glucose 10 mM", "result": 0.0785, "unit": "min⁻¹"}, {"measurement": "GOx Activity", "setting": "[5]; IC50 data, inhibitor 70.0 nM, glucose 10 mM", "result": 0.0871, "unit": "min⁻¹"}, {"measurement": "GOx Activity", "setting": "[5]; IC50 data, inhibitor 140.0 nM, glucose 10 mM", "result": 0.08235, "unit": "min⁻¹"}, {"measurement": "GOx Activity", "setting": "[5]; IC50 data, inhibitor 700.0 nM, glucose 10 mM", "result": 0.0656, "unit": "min⁻¹"}, {"measurement": "GOx Activity", "setting": "[5]; IC50 data, inhibitor 1400.0 nM, glucose 10 mM", "result": 0.0557, "unit": "min⁻¹"}, {"measurement": "GOx Activity", "setting": "[5]; IC50 data, inhibitor 7000.0 nM, glucose 10 mM", "result": 0.0417, "unit": "min⁻¹"}, {"measurement": "GOx Activity", "setting": "[5]; IC50 data, inhibitor 140000.0 nM, glucose 10 mM", "result": 0.0376, "unit": "min⁻¹"}, {"measurement": "GOx Activity", "setting": "[5]; Ki data, inhibitor 7,0·10^-7 M, [Glucose] 0.0002 M", "result": 0.0019, "unit": "min⁻¹"}, {"measurement": "GOx Activity", "setting": "[5]; Ki data, inhibitor 7,0·10^-7 M, [Glucose] 0.0007 M", "result": 0.0067, "unit": "min⁻¹"}, {"measurement": "GOx Activity", "setting": "[5]; Ki data, inhibitor 7,0·10^-7 M, [Glucose] 0.0014 M", "result": 0.01145, "unit": "min⁻¹"}, {"measurement": "GOx Activity", "setting": "[5]; Ki data, inhibitor 7,0·10^-7 M, [Glucose] 0.0028 M", "result": 0.02218, "unit": "min⁻¹"}, {"measurement": "GOx Activity", "setting": "[5]; Ki data, inhibitor 7,0·10^-7 M, [Glucose] 0.004 M", "result": 0.02548, "unit": "min⁻¹"}, {"measurement": "GOx Activity", "setting": "[5]; Ki data, inhibitor 7·10^-8 M, [Glucose] 0.0002 M", "result": 0.0021, "unit": "min⁻¹"}, {"measurement": "GOx Activity", "setting": "[5]; Ki data, inhibitor 7·10^-8 M, [Glucose] 0.0007 M", "result": 0.01063, "unit": "min⁻¹"}, {"measurement": "GOx Activity", "setting": "[5]; Ki data, inhibitor 7·10^-8 M, [Glucose] 0.0014 M", "result": 0.01978, "unit": "min⁻¹"}, {"measurement": "GOx Activity", "setting": "[5]; Ki data, inhibitor 7·10^-8 M, [Glucose] 0.0028 M", "result": 0.03193, "unit": "min⁻¹"}, {"measurement": "GOx Activity", "setting": "[5]; Ki data, inhibitor 7·10^-8 M, [Glucose] 0.004 M", "result": 0.0385, "unit": "min⁻¹"}, {"measurement": "GOx Activity", "setting": "[5]; Ki data, inhibitor 14·10^-7 M, [Glucose] 0.0002 M", "result": 0.00175, "unit": "min⁻¹"}, {"measurement": "GOx Activity", "setting": "[5]; Ki data, inhibitor 14·10^-7 M, [Glucose] 0.0007 M", "result": 0.006225, "unit": "min⁻¹"}, {"measurement": "GOx Activity", "setting": "[5]; Ki data, inhibitor 14·10^-7 M, [Glucose] 0.0014 M", "result": 0.013, "unit": "min⁻¹"}, {"measurement": "GOx Activity", "setting": "[5]; Ki data, inhibitor 14·10^-7 M, [Glucose] 0.0028 M", "result": 0.01805, "unit": "min⁻¹"}, {"measurement": "GOx Activity", "setting": "[5]; Ki data, inhibitor 14·10^-7 M, [Glucose] 0.004 M", "result": 0.02392, "unit": "min⁻¹"}, {"measurement": "GOx Activity", "setting": "[5]; Ki data, inhibitor 14·10^-8 M, [Glucose] 0.0002 M", "result": 0.001875, "unit": "min⁻¹"}, {"measurement": "GOx Activity", "setting": "[5]; Ki data, inhibitor 14·10^-8 M, [Glucose] 0.0007 M", "result": 0.008475, "unit": "min⁻¹"}, {"measurement": "GOx Activity", "setting": "[5]; Ki data, inhibitor 14·10^-8 M, [Glucose] 0.0014 M", "result": 0.0135, "unit": "min⁻¹"}, {"measurement": "GOx Activity", "setting": "[5]; Ki data, inhibitor 14·10^-8 M, [Glucose] 0.0028 M", "result": 0.0304, "unit": "min⁻¹"}, {"measurement": "GOx Activity", "setting": "[5]; Ki data, inhibitor 14·10^-8 M, [Glucose] 0.004 M", "result": 0.0395, "unit": "min⁻¹"}, {"measurement": "1/Vo", "setting": "[5]; inhibitor 0,7 µM, 1/[glucose] 250 M-1", "result": 41.8673, "unit": "min"}, {"measurement": "1/Vo", "setting": "[5]; inhibitor 0,7 µM, 1/[glucose] 357 M-1", "result": 59.4498, "unit": "min"}, {"measurement": "1/Vo", "setting": "[5]; inhibitor 0,7 µM, 1/[glucose] 714 M-1", "result": 110.461, "unit": "min"}, {"measurement": "1/Vo", "setting": "[5]; inhibitor 0,7 µM, 1/[glucose] 1430 M-1", "result": 185.984, "unit": "min"}, {"measurement": "1/Vo", "setting": "[5]; inhibitor 0,7 µM, 1/[glucose] 5000 M-1", "result": 603.288, "unit": "min"}, {"measurement": "1/Vo", "setting": "[5]; inhibitor 1,4 µM, 1/[glucose] 250 M-1", "result": 56.7644, "unit": "min"}, {"measurement": "1/Vo", "setting": "[5]; inhibitor 1,4 µM, 1/[glucose] 357 M-1", "result": 75.4986, "unit": "min"}, {"measurement": "1/Vo", "setting": "[5]; inhibitor 1,4 µM, 1/[glucose] 714 M-1", "result": 81.9727, "unit": "min"}, {"measurement": "1/Vo", "setting": "[5]; inhibitor 1,4 µM, 1/[glucose] 1430 M-1", "result": 178.284, "unit": "min"}, {"measurement": "1/Vo", "setting": "[5]; inhibitor 1,4 µM, 1/[glucose] 5000 M-1", "result": 687.292, "unit": "min"}, {"measurement": "Inhibitor Type", "setting": "[5]; Lineweaver–Burk plots", "result": "non-competitive"}, {"measurement": "IC50", "setting": "[5]; [Glucose] 10 mM, 37 °C, sodium acetate buffer pH 5.1", "result": "1800 ± 100", "unit": "nM"}, {"measurement": "Ki", "setting": "[5]; non-competitive inhibition model, 37 °C, sodium acetate buffer pH 5.1", "result": "1700 ± 200", "unit": "nM"}, {"measurement": "Emmsion average", "setting": "[6]; [(4)2] 40 μM", "result": 2487781}, {"measurement": "Normalized Fluorescence", "setting": "[6]; [(4)2] 40 μM", "result": 0.09492}, {"measurement": "Emmsion average", "setting": "[6]; [(4)2] 80 μM", "result": 2153387}, {"measurement": "Normalized Fluorescence", "setting": "[6]; [(4)2] 80 μM", "result": 0.2166}, {"measurement": "Emmsion average", "setting": "[6]; [(4)2] 400 μM", "result": 1756334}, {"measurement": "Normalized Fluorescence", "setting": "[6]; [(4)2] 400 μM", "result": 0.361}, {"measurement": "Emmsion average", "setting": "[6]; [(4)2] 2000 μM", "result": 1449655}, {"measurement": "Normalized Fluorescence", "setting": "[6]; [(4)2] 2000 μM", "result": 0.4726}, {"measurement": "Emmsion average", "setting": "[6]; [(4)2] 4000 μM", "result": 1064446}, {"measurement": "Normalized Fluorescence", "setting": "[6]; [(4)2] 4000 μM", "result": 0.6127}, {"measurement": "Emmsion average", "setting": "[6]; [(4)2] 8000 μM", "result": 516610}, {"measurement": "Normalized Fluorescence", "setting": "[6]; [(4)2] 8000 μM", "result": 0.8121}, {"measurement": "Emmsion average", "setting": "[6]; [(4)2] 16000 μM", "result": 236911}, {"measurement": "Normalized Fluorescence", "setting": "[6]; [(4)2] 16000 μM", "result": 0.9138}, {"measurement": "Kd", "setting": "[6]; apparent dissociation constant, GOx 0.8 µM, Tris pH 7.8, 5% DMSO, 10 °C, read-out: Kd'", "result": "110000 ± 10000", "unit": "nM"}, {"measurement": "amplification in the BSA-templated DCL", "setting": "[7]; GOx replaced by BSA", "result": "did not amplify"}, {"measurement": "NC of RPA", "setting": "[7]; blank vs BSA-DCL, BSA 57 µM, Secox 5% mol, 24 h", "result": "0,02"}]}
